Measurements published in PMC8510480, “Searching Anti-Zika Virus Activity in 1H-1,2,3-Triazole Based Compounds” (Molecules, 2021).

Columns and labels:
[1] = Cytotoxicity test with MTT method in Vero cells; format: cell-based, African green monkey; details: African green monkey, 5 days, read-out: CC50 (50% cytotoxic concentration)
Protocol: (§1) The cytotoxicity of compounds 1–7 to Vero cells, an epithelial cell line derived from the kidney of an African green monkey, was tested using the 3-(4,5-dimethylthiazol-2-yl)-2,5-diphenyltetrazolium bromide (MTT) method. […] Based on CC20 values, which was the maximum concentration used for antiviral screening, 3b compound was the least toxic with a value of 527.2 µM. Compounds 2a and 2b were the most cytotoxic with values of 8.87 µM and 9.89 µM, respectively. […] The results from compounds 3a, 3b and 4a, 4b ranged from 40.69 to 527.20 µM. […] The presence of phthalimide group or sugar increases the values of CC20 and CC50 (Table 2 and Supplementary Material: Figure S1).
(§2) 96-well plates with 1 × 10^4 cell/well were used in this assay and prepared 24 h previously. The compounds were diluted in a 2:1 ratio so that a maximum of 0.8% DMSO was used. The concentrations used were 800, 400, 200, 100, 50, 25 and 12.5 µM. Dilutions were added to the wells in triplicate and incubated at 37 °C and 5% CO2 atmosphere. After 5 days, the wells were emptied and a 50 µL of 1 mg/mL MTT (3-(4,5-dimethylthiazol-2-yl)-2,5-diphenyltetrazolium bromide) (Sigma-Aldrich) solution was added, and the cells were incubated for 3–4 h for formation of formazan crystals through the mitochondria of viable cells. Then, medium was removed and 100 µL DMSO was added to the wells to solubilize the formazan crystals. With the aid of an incubator Tecnal TE-420 (Tecnal Equipamentos Científicos, Piracicaba, São Paulo, Brazil), the plates were homogenized at 120 RPM at 37 °C and the optical densities were read at 570 nm on a spectrophotometer BioTekTM ELx800TM (BioTek Instruments, Winooski, VT, USA).
(§3) The determination of the CC20 and CC50 values was obtained through the linear regression analysis of the XY graph generated by the values of the concentrations used in the test and the triplicate values of the viability. In the post-infection and pre-treatment tests, ANOVA and Dunnett tests were used, considering […] as the minimum significance value. All tests were performed in GraphPad Prism v.6.0 program (GraphPad Software, Inc., San Diego, CA, USA).

Vero cells = test: Cytotoxicity test with MTT method in Vero cells; format: cell-based, African green monkey; details: 5 days
Protocol: as §1, §2, §3

ZIKV [2] = test: Screening test for anti-ZIKV activity (post-infection, compounds at CC20, TCID50 titration); format: cell-based, Zika virus; details: ZIKV MOI 0.1, compound at CC20, 5 days, TCID50, Vero cells
Protocol: The antiviral activities of the compounds were evaluated by infecting Vero cells with ZIKV and then treating them with the testing molecules. Virus titer in the supernatants of treated wells and its comparison with the negative (cell + virus) and the positive 6-methylmercaptopurine riboside (6MMPr) controls allowed for the determination of the antiviral effect.
Figure 4 Graphic result of all triazole derivates in the screening test for anti-ZIKV activity. The screening test was made for post-infection with ZIKV MOI 0.1 and treated with CC20 values from heterocyclic compounds discovered in the cytotoxicity test. After five days, the supernatant was collected and titrated by TCID50 method. The experiment was conducted in triplicates and values are the mean and the standard deviation (SD). […]
(§4) 96-well plates with 1 × 10^4 cell/well were used in this assay and prepared 24 h previously. […] The reading was performed in an inverted optical microscope AE2000, Motic (Motic, Kowloon Bay, Hong Kong) counting positives wells by the presence of cytopathic effect and the determination of the sample title was performed with the aid of the Microsoft Office Excel program (Microsoft® Office, Redmond, WA, USA).
The screening of the compounds was carried out with the CC20 value (µM) to determine the most viable compounds for more detailed antiviral tests. […] The samples were then titrated and analysed statistically.

ZIKV [3] = test: Pre-treatment test to ZIKV in Vero cells; format: cell-based, Zika virus; details: 1 h pre-treatment at 136.90, 68.45, 34.22 and 17.11 µM, then ZIKV MOI 0.1, 5 days
Protocol: Since compound 4b was the only one in the series with activity against ZIKV, further experiments were conducted to elucidate its mechanism of action in cells that were pre-treated. To this, cells were pre-treated with varying concentrations of compound 4b, washed, and then infected with ZIKV. The concentrations used were chosen with the aim to preserve cellular viability and, thus, the maximum concentration was the previously determined CC20 value (136.90, 68.45, 34.22 and 17.11 µM).
Figure 5 Graphic result for compound 4b in the pre-treatment test to ZIKV. Vero cells in a 48-well cell plate were treated with 4b in different concentrations and after 1 h the supernatant was discarded. Cells were washed with PBS 1X, ZIKV MOI 0.1 was inoculated, and the plate was incubated again. After five days, the supernatant was collected and titrated by TCID50 method. The experiment was conducted in triplicates and values are the mean and the SD. […]
as §4, with “USA). […]” for “USA).”

SMILES: O=C1C(Br)=C(NCc2cn(CN3C(=O)c4ccccc4C3=O)nn2)C(=O)c2ccccc21 [Compound 4b]
- CC50 at 5 days [1]: 330 µM
- CC20 (20% cytotoxic concentration) (Vero cells): 136.90 µM
- reduction in viral titer vs non-treated control (ZIKV [2]): statistically significant reduction in viral titer
- change in virus titers vs negative control (ZIKV [3]): no significant change in virus titers
